pEC50, pIC50, pKd: −log10 of the molar value.
Assays:
RARβ = target: T1, RARβ (Homo sapiens, UniProt P10826); test: co-transfection assay (RAR/RXR agonist activity, luciferase reporter in CV-1 cells); assay type: cell-based; conditions: potency = EC50, agonist, 40 hours, read-out: RARβ Pot
T1 sequence (P10826 1-448 isoform P10826-2): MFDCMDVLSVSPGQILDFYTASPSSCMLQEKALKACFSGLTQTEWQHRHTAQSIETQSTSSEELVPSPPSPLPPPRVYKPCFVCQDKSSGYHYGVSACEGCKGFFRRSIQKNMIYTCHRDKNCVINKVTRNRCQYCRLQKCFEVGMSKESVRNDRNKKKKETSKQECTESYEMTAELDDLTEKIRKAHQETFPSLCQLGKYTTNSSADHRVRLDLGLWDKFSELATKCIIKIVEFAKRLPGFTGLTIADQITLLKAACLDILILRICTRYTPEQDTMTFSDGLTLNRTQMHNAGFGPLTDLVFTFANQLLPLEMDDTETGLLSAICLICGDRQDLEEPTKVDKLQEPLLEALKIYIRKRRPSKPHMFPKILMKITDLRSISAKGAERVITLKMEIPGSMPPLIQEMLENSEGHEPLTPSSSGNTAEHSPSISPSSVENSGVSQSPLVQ

RARγ = target: T2, RARγ (Homo sapiens, UniProt P13631); test: as above; assay type: cell-based; conditions: potency = EC50, agonist, 40 hours, read-out: RARγ Pot
T2 sequence (P13631 1-454): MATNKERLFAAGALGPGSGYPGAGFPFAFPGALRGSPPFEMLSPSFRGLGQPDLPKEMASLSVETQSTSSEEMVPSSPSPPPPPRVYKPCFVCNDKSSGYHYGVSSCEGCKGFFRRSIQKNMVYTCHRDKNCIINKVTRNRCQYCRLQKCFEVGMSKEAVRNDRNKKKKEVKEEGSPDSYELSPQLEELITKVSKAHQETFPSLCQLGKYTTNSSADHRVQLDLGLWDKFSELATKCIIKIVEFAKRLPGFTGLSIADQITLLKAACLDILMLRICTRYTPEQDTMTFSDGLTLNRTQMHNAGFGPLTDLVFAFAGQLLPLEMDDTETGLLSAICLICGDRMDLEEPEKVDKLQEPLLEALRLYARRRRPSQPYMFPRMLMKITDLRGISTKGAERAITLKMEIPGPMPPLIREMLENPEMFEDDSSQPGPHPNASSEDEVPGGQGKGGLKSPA

RXRα [1] = target: T3, RXRα (Homo sapiens, UniProt P19793); test: as above; assay type: cell-based; conditions: read-out: RXRα Pot
T3 sequence (P19793 1-462): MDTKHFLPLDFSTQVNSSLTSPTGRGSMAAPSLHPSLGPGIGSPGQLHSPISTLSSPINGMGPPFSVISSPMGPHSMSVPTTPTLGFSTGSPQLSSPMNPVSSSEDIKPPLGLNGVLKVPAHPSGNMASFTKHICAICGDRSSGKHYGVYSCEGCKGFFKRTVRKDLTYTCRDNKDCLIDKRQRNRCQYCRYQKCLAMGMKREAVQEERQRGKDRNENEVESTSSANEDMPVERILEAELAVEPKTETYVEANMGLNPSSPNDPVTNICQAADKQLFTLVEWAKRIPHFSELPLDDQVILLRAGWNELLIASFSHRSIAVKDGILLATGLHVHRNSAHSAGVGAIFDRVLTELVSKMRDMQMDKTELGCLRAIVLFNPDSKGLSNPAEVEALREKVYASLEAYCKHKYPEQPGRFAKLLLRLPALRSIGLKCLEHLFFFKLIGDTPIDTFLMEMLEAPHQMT

RXRα [2] = target: T3, RXRα; test: competitive binding of tritiated retinoids to retinoid receptors; conditions: competition with tritiated retinoid, Cheng-Prussof equation
RXRβ = target: T4, RXRβ (Mus musculus, UniProt P28704); test: as above; conditions: competition with tritiated retinoid, Cheng-Prussof equation
T4 sequence (P28704 1-520): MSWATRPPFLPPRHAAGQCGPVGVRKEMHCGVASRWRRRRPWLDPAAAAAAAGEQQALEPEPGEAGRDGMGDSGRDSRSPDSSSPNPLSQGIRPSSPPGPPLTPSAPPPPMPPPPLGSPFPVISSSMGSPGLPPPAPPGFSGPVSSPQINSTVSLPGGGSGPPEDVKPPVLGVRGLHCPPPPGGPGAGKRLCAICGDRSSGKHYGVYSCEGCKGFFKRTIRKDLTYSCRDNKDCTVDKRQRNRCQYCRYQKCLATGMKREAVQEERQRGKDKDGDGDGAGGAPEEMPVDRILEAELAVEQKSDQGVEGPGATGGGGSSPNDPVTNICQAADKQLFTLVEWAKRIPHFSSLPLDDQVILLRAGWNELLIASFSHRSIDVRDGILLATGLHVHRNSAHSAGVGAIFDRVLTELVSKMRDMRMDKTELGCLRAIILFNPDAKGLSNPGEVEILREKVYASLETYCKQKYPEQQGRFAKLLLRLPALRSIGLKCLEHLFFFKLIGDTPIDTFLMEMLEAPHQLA

RXRγ = target: T5, RXRγ (Mus musculus, UniProt P28705); test: as above; conditions: competition with tritiated retinoid, Cheng-Prussof equation
T5 sequence (P28705 1-463): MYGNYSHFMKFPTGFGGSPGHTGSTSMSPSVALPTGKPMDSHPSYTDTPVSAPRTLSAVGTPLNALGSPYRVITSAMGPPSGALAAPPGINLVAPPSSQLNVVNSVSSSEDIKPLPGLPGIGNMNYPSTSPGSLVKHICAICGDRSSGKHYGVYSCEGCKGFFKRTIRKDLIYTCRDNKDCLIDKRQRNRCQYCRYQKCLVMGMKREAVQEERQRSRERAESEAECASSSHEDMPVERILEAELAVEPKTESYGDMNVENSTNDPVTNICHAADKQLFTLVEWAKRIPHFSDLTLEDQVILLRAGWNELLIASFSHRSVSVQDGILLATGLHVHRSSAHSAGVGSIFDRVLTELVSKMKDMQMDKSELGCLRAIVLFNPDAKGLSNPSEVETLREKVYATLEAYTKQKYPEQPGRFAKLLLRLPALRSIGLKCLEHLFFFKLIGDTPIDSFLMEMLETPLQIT

TPA induction of ODC = test: ornithine decarboxylase (ODC) assay: inhibition of TPA induction of ODC; assay type: cell-based; conditions: concentration required to inhibit the TPA induction of ODC by 80 percent
RPMI 8226 cell line [3] = test: incorporation of 3H-thymidine (antiproliferative); assay type: cell-based; conditions: Homo sapiens, 96 hours, radiolabeled thymidine incorporation, read-out: TdR IC50
RPMI 8226 cell line [4] = test: viability (tetrazolium dye, mitochondrial function); assay type: cell-based; conditions: Homo sapiens, 96 hours, read-out: MTS IC50
ME 180 cell line = test: incorporation of 3H-thymidine (antiproliferative); assay type: cell-based; conditions: Homo sapiens, 96 hours, radiolabeled thymidine incorporation, read-out: TdR IC50
AML-193 cell line = test: incorporation of 3H-thymidine (antiproliferative); conditions: Homo sapiens, 96 h, read-out: TdR IC50 (nM)

| Structure (SMILES) | pEC50 (RARβ) | pEC50 (RARγ) | pEC50 (RXRα [1]) | pKd (RXRα [2]) | pKd (RXRβ) | pKd (RXRγ) | IC80 (TPA induction of ODC) | pIC50 (RPMI 8226 cell line [3]) | pIC50 (RPMI 8226 cell line [4]) | pIC50 (ME 180 cell line) | IC50 (AML-193 cell line) |
| --- | --- | --- | --- | --- | --- | --- | --- | --- | --- | --- | --- |
| CC(/C=C/C=C1\CCCc2cc3c(cc21)C(C)(C)CCC3(C)C)=C\C(=O)O [Compound 109b, (2E,4E)-3-Methyl-6-[(E)-3,4,5,6,7,8-hexahydro-5,5,8,8-tetramethyl-2H-anthracen-1-ylidene]hexa-2,4-dienoic acid] | 8.52 | 9.00 | 5.69 | 6.47 | 6.48 | 6.42 | 0.08 nM | 10.30 | 8.00 | 8.30 | 500 nM |
| CC(/C=C/CN1CCCCc2cc3c(cc21)C(C)(C)CCC3(C)C)=C\C(=O)O [Compound 138b, (2E,4E)-3-Methyl-6-[7,7,10,10-tetramethyl-2,3,4,5,7,8,9,10-octahydronaphtho[2,3-6]azepinyl)hexa-2,4-dienoic acid] | < 5.00 | < 5.00 | 6.37 | 6.87 | 6.56 | 6.29 | – | – | – | – | – |
| CC(/C=C/C=C1/CCOc2cc3c(cc21)C(C)(C)CCC3(C)C)=C\C(=O)O [Compound 144b] | 8.52 | 8.70 | 7.44 | 7.23 | 6.84 | 7.07 | 0.6 nM | 9.22 | 8.12 | 8.40 | 0.6 nM |
| CC(/C=C/C=C1/CCCc2cc3c(cc21)C(C)(C)CCC3(C)C)=C\C(=O)O [Compound 101b, (2E,4E)-3-Methyl-6-[(Z)-3,4,5,6,7,8-hexahydro-5,5,8,8-tetramethyl-2H-anthracen-1-ylidene]hexa-2,4-dienoic acid] | 8.10 | 8.15 | 7.46 | 7.47 | 7.52 | 7.32 | 0.78 nM | 8.22 | 7.00 | 8.10 | 37 nM |
| CC(/C=C/C=C1\CCOc2cc3c(cc21)C(C)(C)CCC3(C)C)=C\C(=O)O [Compound 119b, (2E,4E)-3-Methyl-6-[(E)-2,3,6,7,8,9-hexahydro-6,6,9,9-tetramethylbenzo[g]chromen-4-ylidene]hexa-2,4-dienoic acid] | 9.00 | 9.00 | 5.78 | 6.61 | 6.43 | 6.40 | – | 9.30 | 8.59 | 9.22 | 0.6 nM |

Source: patent EP0933350A1, “Tricyclic retinoids, methods for their production and use” (LIGAND PHARMACEUTICALS INCORPORATED, priority 1994, dated 1996)
